Data from US9220758B2, “Calcitonin products and therapies for treating inflammatory or degenerative diseases” (UGP Therapeutics, Inc., priority 2010, dated 2015).

How the values were obtained:
Assay type in all cases: cell-based
[1] = test system: bovine articular cartilage explants; assay: General MMP activity in culture medium of cytokine-stimulated bovine cartilage explants (fluorogenic substrate); details: stimulated control 23
Procedure: (§1) Outcome parameters included (i) CTX-II in the culture medium as a measure of collagen degradation, (ii) GAG in the culture medium and cartilage explant as a measure of proteoglycan degradation, (iii) prostaglandin E2 (PGE2) measured by ELISA in the culture medium as a measure of inflammation, and (iv) general MMP activity in the culture medium. Not all outcome parameters were determined for each of the culture conditions.
The MMP activity was measured as MMP activity per mg cartilage.
(§2) Full thickness cartilage was obtained from the metacarpophalangeal joints of approximately 6 months old calves (from a local slaughterhouse). Cartilage punches (4 mm) were taken from the cartilage and placed in culture dishes with culture medium (DMEM+FCS, penicillin, streptomycin and ascorbic acid). Cartilage explants were weighed and explants between about 5 and about 15 mg were divided into a 96-well culture plate with 1 explant per well and 200 μL culture medium. Cartilage degradation was induced by addition of TNFα, IL-1α, and OSM at 10 ng/mL each to the culture medium to induce cartilage degradation. Test agents were then added at different concentrations. During three weeks of culture, the culture medium and the test compounds were refreshed once weekly. In addition fresh calcitonin was added twice weekly to the cartilage explants. Culture medium and cartilage explants were stored at −20° C. until analysis. Each culture condition was cultured in four-fold and the entire experiment was performed on cartilage from three different paws. The different culture conditions are listed below in Table 3.

[2] = test system: bovine articular cartilage explants; assay: Collagen (CTX-II) release from cytokine-stimulated bovine cartilage explants (CTX-II ELISA); details: for CTX-II release: stimulated control 135; for highest ineffective concentration, Collagen Release: TNFa/IL-1a/OSM 10 ng/ml each, 3 week culture; for effect on collagen release (in words): Example 1, concentrations of Table 1
Procedure: as §2, with “medium.” for “medium to induce cartilage degradation.”, “1.” for “3.”
as §1
Collagen release was measured as CTX-II release per mg cartilage. Collagen was measured in the pooled medium using the CTXII ELISA assay (Pre-clinical Cartilaps®, Nordic Bioscience).
as §2

[3] = test system: bovine articular cartilage explants; assay: Proteoglycan (GAG) release from cytokine-stimulated bovine cartilage explants (Blyscan assay); details: for normalized GAG (proteoglycan) release: stimulated control = 100%; for highest ineffective concentration, Proteoglycan release: TNFa/IL-1a/OSM 10 ng/ml each, 3 week culture; for effect on proteoglycan release (in words): Example 1, concentrations of Table 1
Procedure: as §2, with “medium.” for “medium to induce cartilage degradation.”, “1.” for “3.”
as §1
The proteoglycan release is measured as GAG release per mg cartilage. Proteoglycan (GAG) content was determined in the pooled medium and explants using the Blyscan® colorimetric assay (Biocolor, Belfast, UK). This value is normalized against the control condition of each donor to correct for donor variation. The basal release of unstimulated cartilage is 36% (p<0.05) when the stimulated (IL-1a, TNFα and OSM) control is set to 100%.
as §2

[4] = test system: bovine articular cartilage explants; assay: PGE2 release from cytokine-stimulated bovine cartilage explants (ELISA); details: for highest ineffective concentration, PGE2 release: TNFa/IL-1a/OSM 10 ng/ml each, 3 week culture; for normalized PGE2 release: stimulated control = 100%
Procedure: as §2, with “medium.” for “medium to induce cartilage degradation.”, “1.” for “3.”
as §1
The prostaglandin E2 release was measured as PGE2 release per mg cartilage. PGE2 was determined in the pooled medium using a PGE2 ELISA from R&D Systems. This value was normalized against the control condition of each donor to correct for donor variation. The basal release of unstimulated cartilage is 11% (p<0.0 1) when the stimulated (IL-1a, TNFα and OSM) control is set to 100%.
as §2

CNC(=O)[C@H](Cc1ccccc1)NC(=O)[C@H](CC(C)C)[C@H](CSc1cccs1)C(=O)NO [BB-94]
MMP activity ([1]; compound alone at 10 nM): 13 RFU/sec per mg cartilage | MMP activity ([1]; compound alone at 100 nM): 4 RFU/sec per mg cartilage | CTX-II release ([2]; compound alone at 10 nM): 137 ng/mg cartilage | CTX-II release ([2]; compound alone at 100 nM): 27 ng/mg cartilage | normalized GAG (proteoglycan) release ([3]; compound alone at 10 nM): 83% | normalized GAG (proteoglycan) release ([3]; compound alone at 100 nM): 80%

Cc1ccc(-c2cc(C(F)(F)F)nn2-c2ccc(S(N)(=O)=O)cc2)cc1 [Celebrex ® (celecoxib), celecoxib]
highest ineffective concentration, PGE2 release [4]: <0.01 µM | highest ineffective concentration, Collagen Release [2]: >10 µM | highest ineffective concentration, Proteoglycan release [3]: 0.1 to 1 µM

C[C@@H]1C[C@H]2[C@@H]3CCC4=CC(=O)C=C[C@]4(C)[C@@]3(F)[C@@H](O)C[C@]2(C)[C@@]1(O)C(=O)CO [Dexamethasone]
highest ineffective concentration, PGE2 release [4]: <0.01 µM | highest ineffective concentration, Collagen Release [2]: <0.01 µM | highest ineffective concentration, Proteoglycan release [3]: <0.01 µM

C[C@H]1c2cccc(O)c2C(=O)C2=C(O)[C@]3(O)C(=O)C(C(N)=O)=C(O)[C@@H](N(C)C)[C@@H]3[C@@H](O)[C@@H]21 [Doxycycline]
highest ineffective concentration, PGE2 release [4]: 1 to 10 µM | normalized PGE2 release ([4]; compound alone at 10 μM): 111% | MMP activity ([1]; compound alone at 10 μM): 14 RFU/sec per mg cartilage | highest ineffective concentration, Collagen Release [2]: 10 to 100 µM | CTX-II release ([2]; compound alone at 10 μM): 125 ng/mg cartilage | highest ineffective concentration, Proteoglycan release [3]: >100 µM | normalized GAG (proteoglycan) release ([3]; compound alone at 100 μM): 80%

CNC(=O)[C@H](Cc1c[nH]c2ccccc12)NC(=O)[C@@H](CC(=O)NO)CC(C)C [Galardin]
highest ineffective concentration, PGE2 release [4]: >10 µM | effect on collagen release (in words) [2]: inhibited | highest ineffective concentration, Collagen Release [2]: <0.1 µM | effect on proteoglycan release (in words) [3]: slightly inhibited | highest ineffective concentration, Proteoglycan release [3]: 1 to 10 µM | normalized GAG (proteoglycan) release ([3]; compound alone at 10 μM): 72%

Calcitonin
highest ineffective concentration, PGE2 release [4]: >0.01 µM | normalized PGE2 release ([4]; compound alone at 10 nM): 117% | MMP activity ([1]; compound alone at 10 nM): 15 RFU/sec per mg cartilage | highest ineffective concentration, Collagen Release [2]: 0.0003 to 0.001 µM | CTX-II release ([2]; compound alone at 0.5 nM): 133 ng/mg cartilage | highest ineffective concentration, Proteoglycan release [3]: >0.01 µM | normalized GAG (proteoglycan) release ([3]; compound alone at 10 nM): 87%

anakinra [Kineret ® (anakinra)]
effect on PGE2 release (in words) ([4]; Example 1, concentrations of Table 1): inhibited all outcome parameters | highest ineffective concentration, PGE2 release [4]: <0.1 µg/mL | effect on collagen release (in words) [2]: inhibited all outcome parameters | effect on proteoglycan release (in words) [3]: inhibited all outcome parameters | highest ineffective concentration, Proteoglycan release [3]: <0.1 µg/mL
